Data published in patent US12638448B2, “Compositions, methods, and kits for detection of lipolytic activity” (priority 2019, dated 2026).
Values joined by “and” are separate entries in the source; they are usually repeats but may differ in a detail not shown here. Equal entries are not always repeated.

What was measured:
[1] = cited from earlier work
[2] = 4MuO auto-hydrolysis (no enzyme), 4Mu fluorescence; assay type: physicochemical
[3] = molecular target: T1, porcine pancreatic lipase (PPL) (Sus scrofa, UniProt P00591); experiment: 4MuO lipase assay with HCMB, sample containing PPL (Examples 1B-6B, 10); assay type: biochemical
T1 construct: purchased Sigma; host or cells: porcine pancreas
T1 sequence (P00591 1-450): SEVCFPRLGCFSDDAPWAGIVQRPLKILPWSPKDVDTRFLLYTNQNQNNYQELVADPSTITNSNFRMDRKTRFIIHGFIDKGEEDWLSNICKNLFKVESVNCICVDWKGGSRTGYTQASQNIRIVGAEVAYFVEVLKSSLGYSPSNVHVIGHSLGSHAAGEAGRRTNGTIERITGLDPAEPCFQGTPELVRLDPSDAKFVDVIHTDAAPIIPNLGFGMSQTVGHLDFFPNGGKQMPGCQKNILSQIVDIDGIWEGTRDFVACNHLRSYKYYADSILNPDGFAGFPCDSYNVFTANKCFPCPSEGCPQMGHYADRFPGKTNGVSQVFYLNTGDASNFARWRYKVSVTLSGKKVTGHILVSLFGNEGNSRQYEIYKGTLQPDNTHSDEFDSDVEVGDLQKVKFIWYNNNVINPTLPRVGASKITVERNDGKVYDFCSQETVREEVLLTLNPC

[4] = molecular target: T2, Porcine pancreas lipase (PPL) (Sus scrofa, UniProt P00591); experiment: 4MuO lipase assay with porcine pancreas lipase (Examples 1A-7); conditions: for concentration at which product inhibition of lipase activity was observed: 800 nM PPL
T2 sequence (P00591 1-450): T1 sequence (P00591 1-450)

LipC12 lipase = conditions: as solvent; cited from earlier work
[5] = system: cell culture harvest fluid (CCHF) containing a mixture of lipases; assay type: biochemical, CHO cell line; conditions: negative controls, 30 min pre-incubation, 10 mg/mL mAb1, 0.02% PS80, 0.5% CCHF
[6] = as organic solvent of the assay
[7] = 10.4 mM TRIS pH 8.1, 500 nM PPL, 22 hours

Cc1cc(=O)oc2cc(O)ccc12 [4Mu, 4-methylumbelliferone]
pKa [1]: approximately 7.7

CCCCCCCC/C=C\CCCCCCCC(=O)Oc1ccc2c(C)cc(=O)oc2c1 [4MuO, 4-methylumbelliferyl oleate, reference compound]
factor by which autohydrolysis (AH) decreased ([2]; lowering the pH from 8 to 6 (TRIS / BIS-TRIS)): ~5

OCCN(CCO)C(CO)(CO)CO [BIS-TRIS]
Auto-Hydrolysis (AH) ([2]; pH 6): 0.16 µM and 0.13 µM and 0.11 µM

[Ca+2].[Cl-].[Cl-] [CaCl2, calcium chloride]
PPL activity (in words) ([3]; highest concentration tested (52 mM CaCl2 in HCMB)): slightly decreased | Enzymatic Hydrolysis (EH − AH) ([4]; 0.104 mM CaCl2, 500 nM PPL): 0.66 µM | Total Hydrolysis (AH + EH) ([4]; 0.104 mM CaCl2, 500 nM PPL): 0.81 µM | Enzymatic Hydrolysis (EH − AH) ([4]; 1.04 mM CaCl2, 500 nM PPL): 0.73 µM | Total Hydrolysis (AH + EH) ([4]; 1.04 mM CaCl2, 500 nM PPL): 0.90 µM | Enzymatic Hydrolysis (EH − AH) ([4]; 10.4 mM CaCl2, 500 nM PPL): 0.69 µM | Total Hydrolysis (AH + EH) ([4]; 10.4 mM CaCl2, 500 nM PPL): 0.85 µM | Auto-Hydrolysis (AH) ([2]; 0.104 mM CaCl2): 0.15 µM | Auto-Hydrolysis (AH) ([2]; 1.04 mM CaCl2): 0.16 µM | Auto-Hydrolysis (AH) ([2]; 10.4 mM CaCl2): 0.16 µM

C[S+](C)[O-] [DMSO, dimethyl sulfoxide]
Auto-Hydrolysis (AH) [2, 6]: 0.14 µM

CC(C)O [IPA, isopropanol]
Auto-Hydrolysis (AH) [2, 6]: 0.09 µM

CCCCCCCCCCCC(=O)O [Lauric Acid, lauric acid, reference compound]
concentration at which product inhibition of lipase activity was observed [4]: above 8.5 μM | Auto-Hydrolysis (AH) ([2]; 8.5 μM Lauric Acid (0.001% PS20 theoretically fully degraded)): 0.15 µM | Auto-Hydrolysis (AH) ([2]; 850 μM Lauric Acid (0.1% PS20 theoretically fully degraded)): 0.08 µM

CO [MeOH, methanol]
factor of increase of LipC12 lipase activity (LipC12 lipase): > 10 | Auto-Hydrolysis (AH) [2, 6]: 0.13 µM

[Cl-].[Na+] [NaCl, sodium chloride]
PPL activity (in words) ([3]; highest concentration tested (1800 mM NaCl in HCMB)): slightly decreased | Enzymatic Hydrolysis (EH − AH) ([4]; 40 mM NaCl, 500 nM PPL): 0.57 µM | Total Hydrolysis (AH + EH) ([4]; 40 mM NaCl, 500 nM PPL): 0.82 µM | Enzymatic Hydrolysis (EH − AH) ([4]; 120 mM NaCl, 500 nM PPL): 0.62 µM | Total Hydrolysis (AH + EH) ([4]; 120 mM NaCl, 500 nM PPL): 0.91 µM | Enzymatic Hydrolysis (EH − AH) ([4]; 360 mM NaCl, 500 nM PPL): 0.59 µM | Total Hydrolysis (AH + EH) ([4]; 360 mM NaCl, 500 nM PPL): 0.86 µM | Auto-Hydrolysis (AH) ([2]; 40 mM NaCl): 0.25 µM | Auto-Hydrolysis (AH) ([2]; 120 mM NaCl): 0.29 µM | Auto-Hydrolysis (AH) ([2]; 360 mM NaCl): 0.28 µM

CCCCCCCC/C=C\CCCCCCCC(=O)O [Oleic Acid, oleic acid, reference compound]
concentration at which product inhibition of lipase activity was observed [4]: 780 µM | Auto-Hydrolysis (AH) ([2]; 7.8 μM Oleic Acid (0.001% PS80 theoretically fully degraded)): 0.11 µM | Auto-Hydrolysis (AH) ([2]; 780 μM Oleic Acid (0.1% PS80 theoretically fully degraded)): 0.06 µM

NC(CO)(CO)CO [TRIS]
Enzymatic Hydrolysis (EH − AH) [4, 7]: 1.29 µM | Total Hydrolysis (AH + EH) [4, 7]: 1.51 µM | Auto-Hydrolysis (AH) ([2]; 10.4 mM TRIS pH 8.1, 22 hours): 0.22 µM

CCCCCCCCCCC[C@@H](C[C@@H]1OC(=O)[C@H]1CCCCCC)OC(=O)[C@H](CC(C)C)NC=O [orlistat, (S)-2-formylamino-4-methyl-pentanoic acid (S)-1-[[(2S,3S)-3-hexyl-4-oxo-2-oxetanyl]methyl]-dodecyl ester, reference compound]
inhibition at 25 µM ([3]; 25 μM, 30 min pre-incubation, 0.0335 mg/mL PPL, read-out: reduction of enzyme activity in pre-treated sample compared to co-addition of substrate and inhibitor): ~50% | PPL activity in protein-containing formulation (in words) ([3]; negative controls, 30 min pre-incubation, 10 mg/mL mAb1, 0.02% PS80, 0.025 mg/mL PPL): inhibited | CCHF lipase activity in protein-containing formulation (in words) [5]: inhibited | lipolytic activity (in words) ([4]; pre-treatment (30 minutes) at 25 μM, 500 nM PPL): completely abolished
